Assay results as given in PubChem BioAssay (NCI).
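Results reflect a 48-hour exposure of cells in 96-well plates to compound at five concentrations. At the GI50, growth is halved. TGI is the concentration that stops growth completely.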

Assays:
Assay in all cases: NCI tumour cell line growth inhibition, 48 h
NCI-H226 lung = test system: NCI-H226 lung
HT29 colon = test system: HT29 colon
MDA-MB-231 breast = test system: MDA-MB-231 breast
SK-MEL-28 melanoma = test system: SK-MEL-28 melanoma
DU-145 prostate = test system: DU-145 prostate
KM12 colon = test system: KM12 colon
PC-3 prostate = test system: PC-3 prostate
CAKI-1 renal = test system: CAKI-1 renal
ACHN renal = test system: ACHN renal
HOP-92 NSCLC = test system: HOP-92 NSCLC

Compound | TGI (NCI-H226 lung) [µM] | TGI (HT29 colon) [µM] | TGI (MDA-MB-231 breast) [µM] | TGI (SK-MEL-28 melanoma) [µM] | TGI (DU-145 prostate) [µM] | TGI (KM12 colon) [µM] | TGI (PC-3 prostate) [µM] | TGI (CAKI-1 renal) [µM] | TGI (ACHN renal) [µM] | TGI (HOP-92 NSCLC) [µM] | GI50 (HT29 colon) [nM] | GI50 (SK-MEL-28 melanoma) [nM] | GI50 (DU-145 prostate) [nM] | GI50 (KM12 colon) [nM] | GI50 (PC-3 prostate) [nM] | GI50 (NCI-H226 lung) [nM] | GI50 (MDA-MB-231 breast) [nM] | GI50 (HOP-92 NSCLC) [nM] | GI50 (CAKI-1 renal) [nM] | GI50 (ACHN renal) [nM]
CC(NC(=O)C(N)CC(=O)O)NC(=O)N1CCOCC1 (configuration not stated) | > 100 | > 100 | > 100 | > 100 | > 100 | > 100 | > 100 | > 100 | > 100 |  |  |  |  |  |  |  |  |  |  | 
COc1ccc2c(c1)CCCN1CCc3cc(OC)c(OC)cc3C21 (configuration not stated) | > 100 | > 100 | > 100 | > 100 | > 100 | > 100 | > 100 | > 100 | > 100 |  |  |  |  |  |  |  |  |  |  | 
O=c1c(O)c(-c2cc(O)c(O)cc2O)oc2cc(O)c(C3OC(CO)C(O)C(O)C3O)c(O)c12 (configuration not stated) | > 100 | > 100 | > 100 | > 100 | > 100 | > 100 | > 100 |  | > 100 | > 100 |  |  |  |  |  |  |  |  |  | 
Cc1ccc(Nc2nc(=O)[nH]c(=O)[nH]2)cc1N=[N+]=[N-] | > 100 | > 100 | > 100 |  | > 100 | > 100 |  | > 100 | > 100 | > 100 |  |  |  |  |  |  |  |  |  | 
COC(=O)c1cc2c3c(cc(O)c2[nH]1)N(C(=O)C1Cc2cc(OC)c(OC)c(OC)c2N1)CC3CCl (configuration not stated) |  | < 0.01 |  | < 0.01 | 0.106 | 0.0142 | < 0.01 |  |  |  | < 10 | < 10 | < 10 | < 10 | < 10 |  |  |  |  | 
Cn1c2ccccc2n2c(=O)c3cccnc3c(C#N)c12 | 30.1 | > 100 | > 100 | > 100 | > 100 | > 100 |  | > 100 | > 100 | > 100 |  |  |  |  |  |  |  |  |  | 
S=C(c1c[nH]c2ccccc12)N1CCN(c2ccccc2)CC1 | > 100 | > 100 | > 100 | > 100 | > 100 | > 100 | > 100 | > 100 | > 100 |  |  |  |  |  |  |  |  |  |  | 
Fc1cc(-c2ncc(Cl)cc2Cl)c2cccccc1-2 | > 100 | > 100 | > 100 |  | > 100 | > 100 | > 100 | > 100 | > 100 |  |  |  |  |  |  |  |  |  |  | 
CC(=N/NC(=S)N1CCCCC1)/C(C)=N\NC(=S)N1CCCCC1 | 3 | 4.07 | 5.63 | 3.99 | 3.05 |  |  | 3.23 | 2.92 | 2.85 |  |  |  |  |  |  |  |  |  | 
Nc1nc(N)c2nc(-c3ccco3)cnc2n1 | > 100 | > 100 |  | > 100 |  | > 100 |  | > 100 | > 100 | > 100 |  |  |  |  |  |  |  |  |  | 
COc1cc(/C=C2\CN(S(=O)(=O)c3ccc(C)cc3)C/C(=C\c3cc(CN4CCCCC4)c(O)c(OC)c3)C2=O)cc(CN2CCCCC2)c1O | 4.29 |  | 2.77 | 3.13 | 3.53 |  | 4.75 | 3.27 | 2.74 | 3.19 |  | 1610 | 1850 |  | 1870 | 1760 | 1140 | 1550 | 1730 | 1440
CSc1nc(O)c(/C=C2\C=Nc3ccccc32)[nH]1 | > 100 | > 100 | > 100 | > 100 | > 100 |  | > 100 |  | > 100 | > 100 |  |  |  |  |  |  |  |  |  | 
CN(C)CCNC(=O)c1ccc(NCCCN(C)CCCNc2ccc(C(=O)NCCN(C)C)c3[nH]c4ccc([N+](=O)[O-])cc4c(=O)c23)c2c(=O)c3cc([N+](=O)[O-])ccc3[nH]c12 |  | 1.02 | 0.34 | 1.06 | 0.641 |  | 0.535 | 3.75 | 1.5 | 0.933 |  |  |  |  |  |  |  |  |  | 
CC(=O)O[C@H]1C(=O)[C@@]2(C)[C@H]([C@H](OC(=O)c3ccccc3)[C@]3(O)C[C@H](OC(=O)[C@H](O)[C@@H](NC(=O)CC(C)C)c4ccccc4)C(C)=C1C3(C)C)[C@]1(OC(C)=O)CO[C@@H]1C[C@@H]2O | > 10 | 0.0296 | > 10 | > 10 | 0.188 |  |  | > 10 | > 10 | 9.85 |  |  |  |  |  |  |  |  |  | 
O=C1/C(=C/c2cccs2)NC(=S)N1CN1CCOCC1 | > 100 | > 100 | > 100 | > 100 | > 100 | > 100 | > 100 |  | > 100 | > 100 |  |  |  |  |  |  |  |  |  | 
Cc1ccc([N+](=O)[O-])cc1S(=O)(=O)Nc1ccc(C2=NNC(c3cccs3)C2)cc1 (configuration not stated) | > 100 | > 100 |  | > 100 | > 100 | 76.1 | > 100 | > 100 | 82.9 | > 100 |  |  |  |  |  |  |  |  |  | 
CC1(C)C[C@H](O)[C@H](O)[C@]23C(=O)O[C@H](O)[C@H]2C(C=O)=CC[C@@H]13 | > 100 | > 100 | > 100 | > 100 | > 100 | > 100 | > 100 | > 100 | > 100 |  |  |  |  |  |  |  |  |  |  | 
CCOC(=O)c1cc(=O)oc2c1N(C)c1ncccc1N2 | > 100 |  | > 100 | > 100 | > 100 | > 100 | > 100 | > 100 | > 100 |  |  |  |  |  |  |  |  |  |  | 
O=C(O)c1cc(O)c2c(c1)Cc1cccc(O)c1C2=O | 59.5 | > 100 | 52.4 | > 100 | > 100 |  | > 100 |  | 34.8 | 41.3 |  |  |  |  |  |  |  |  |  | 
CC1(C)N=C(/C=N/O)C(C)(C)N1O | > 100 | > 100 | > 100 | > 100 | > 100 | > 100 | > 100 |  | > 100 | > 100 |  |  |  |  |  |  |  |  |  | 
C=Cc1cc2c(cc1O)CC[C@@H]1[C@@H]2CC[C@]2(C)[C@@H](O)CC[C@@H]12 | 30.7 | 29.5 | 18.7 | 16.7 | 16.6 | 14.9 | 36.5 | 20.8 | 21.1 |  |  |  | 4410 |  |  |  |  |  |  | 
O=C(CN1CCOCC1)CC(O)(C(F)(F)F)C(F)(F)F | > 100 |  | > 100 | > 100 | > 100 | > 100 | 99.8 | > 100 | > 100 | 97.2 |  |  |  |  |  |  |  |  |  | 
